According to patent publication US20190119284A1, “ErbB Inhibitors and Uses Thereof” (The Regents of the University of California, priority 2016, published 2019):

Tested on: Ba/F3 cell line panel (HER2YF/HER3)
Assay: 48 h proliferation of the Ba/F3 cell line panel (CellTiter-Glo)
Format: cell-based
Conditions: 48 h proliferation curves
Procedure: FIGS. 3A-3D. Design and execution of a high-throughput screen identifies a novel HER2/HER3 inhibitor. FIG. 3A: 2YF/3wt cells were incubated in the presence or absence of NRG for 48 h and proliferation was assessed by CellTiter-Glo (mean±SD, n=1). […] FIG. 3C: Structure and proliferation curves for hit compound 1 (also referred herein as compound 185) against the Ba/F3 cell line panel (mean±SD, n=3), FIG. 3D: Structure and proliferation curves for compound 2 (also referred to herein as compound 55A) against the panel of Ba/F3 cell lines (mean±SD, n=3).
FIGS. 4A-4F. Compound 2 is a selective Type I inhibitor for HER2. […] FIG. 4B: Thermal stabilization of the HER3 kinase domain by either compound 2 or ATP as determined by Thermofluor (mean±SD, n=3). FIGS. 4C-4D: The crystal structure of either erlotinib (FIG. 4C) or 2 (FIG. 4D) bound to EGFR V924R. The kinase domain in complex with compound 2 has been stabilized in the active confirmation by drug binding, despite the mutation—as evidenced by the ordered extension of the activation loop and the inward positioning of the α-C helix.
FIGS. 5A-5D. […] FIG. 5A: Chemical structure of compound 3 (also referred to herein as compound 178). FIG. 5B: Proliferation curves for compound 3 against the Ba/F3 cell line panel (mean±SD, n=3). […] FIG. 5D: The same assay in FIG. 2A was performed with compound 3 in SK-BR-3 cells.
FIG. 10. […]

CC(=O)Nc1nc(C)c(-c2ccc(Cl)c(S(=O)(=O)NCCO)c2)s1 [PIK-93]
level of pathway inhibition distinguished by the Ba/F3 panel: hit downstream
